Measurements reported in patent US20250009889A1, “CYCLIC PEROXIDES AS PRODRUGS FOR SELECTIVE DELIVERY OF AGENTS” (The Regents of the University of California, priority 2021, published 2025).
“Also recorded” adds a separate entry of the source.

Tests used:
[1] = Fe(II)-fragmentation assay followed by UPLC/MS; format: physicochemical; details: ferrous-ammonium sulfate with pH 7.4 Tris buffer; for fragmentation of the trioxolane / conversion to the common cyclohexanone intermediate A on exposure to Fe^2+: UPLC/MS
Method: Fe(II)-Fragmentation Assay To 1 mL of trioxolane analog in DMSO (1 mM) at 37° C. was added 1 mL of Tris containing 50 mM ferrous ammonium sulfate. At various time points, 40 μL aliquots of the resulting mixture were removed and spun down in a mini centrifuge for 20 seconds, 20 μL of the supernatant was removed and 5 μL was injected into the UPLC. The concentration of the fragments was determined by UV from UPLC (290 nm). The resulting UV curves were plotted using GraphPad Prism software.

[2] = system: P. falciparum parasites (W2 strain); assay: Growth inhibition of cultured P. falciparum parasites (antiplasmodial activity); format: cell-based; details: Plasmodium falciparum, Erythrocyte, in human red blood cells, 48 h incubation, flow cytometry, read-out: IC50 against cultured P. falciparum parasites
Method: Plasmodium falciparum EC50 Determinations
The growth inhibition assay for P. falciparum was conducted as described previously with minor modifications. Briefly, P. falciparum strain W2 synchronized ring-stage parasites were cultured in human red blood cells in 96-well flat-bottom culture plates at 37° C., adjusted to 1% parasitemia and 2% hematocrit under an atmosphere of 3% O2, 5% CO2, and […] in a final volume of 0.1 mL per well in RPMI-1640 media supplemented with 0.5% Albumax, 2 mM L-glutamine, and […] in the presence of various concentrations of inhibitors. […] Following 48 h of incubation, the cells were fixed by adding 0.1 mL of 2% formaldehyde in phosphate buffered saline, pH=7.4 (PBS). Parasite growth was evaluated by flow cytometry on a FACsort (Becton Dickinson) equipped with AMS-1 loader (Cytek Development) after staining with 1 nM of the DNA dye YOYO-1 (Molecular Probes) in 100 mM NH4Cl, 0.1% Triton x-100 in 0.8% NaCl. Parasitemias were determined from dot plots (forward scatter vs fluorescence) using CELLQUEST software (Becton Dickinson). EC50 values for growth inhibition were determined from plots of percentage control parasitemia over inhibitor concentration using GraphPad Prism software.

| Structure (SMILES) | alternate bicyclo[2.2.1]heptan-2-one product detected (regioselectivity of peroxide scission) [1] | rate of conversion to intermediate A relative to comparator 6a [1] | time point by which the conjugate is fully consumed ([1]; 37° C.) [min] | fragmentation of the trioxolane / conversion to the common cyclohexanone intermediate A on exposure to Fe^2+ ([1]; 37° C.) | IC50 [2] [nM] |
| --- | --- | --- | --- | --- | --- |
| O=C(O[C@@H]1CCC[C@]2(C1)OOC1(CC3CCC1C3)O2)N1CCCCC1C(O)c1cc(C(F)(F)F)nc2c(C(F)(F)F)cccc12 (stereo partly drawn) [6f] | No detectable quantity | moderately faster | ≤ 11 | rapid; also recorded: within minutes to clean conversion | 74 |
| O=C(O[C@@H]1CCC[C@]2(C1)OOC1(CC3CCC1CC3)O2)N1CCCCC1C(O)c1cc(C(F)(F)F)nc2c(C(F)(F)F)cccc12 (stereo partly drawn) [6g] | – | – | – | – | 24 |
| O=C(O[C@@H]1CCC[C@]2(C1)OOC1(O2)C2CCCC1CCC2)N1CCCCC1C(O)c1cc(C(F)(F)F)nc2c(C(F)(F)F)cccc12 (stereo partly drawn) [6h] | – | – | – | – | 24 |
| O=C(O[C@@H]1CCC[C@]2(C1)OOC1(O2)C2CC3CC(C2)CC1C3)N1CCCCC1C(O)c1cc(C(F)(F)F)nc2c(C(F)(F)F)cccc12 (stereo partly drawn) [6a, reference compound] | – | – | – | rapid; also recorded: within minutes to clean conversion | 17 |
